Each structure is given as a SMILES string.

The nature of this data set: gradient 5% acetonitrile 3 min, to 50% in 2 min, to 85% in 15 min, held 3 min, 100 µL/min. Particulars: column: Zorbax Extend-C18 2.1 x 50 mm; eluents: water / acetonitrile, 0.1% formic acid. The essentials:
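Over 3 months, pure standards in mixtures of ~100 molecules were run by HPLC coupled to a quadrupole time-of-flight mass spectrometer in positive and negative ionization mode. The column was a Zorbax Extend-C18 (2.1 × 50 mm, 1.8 μm) at 100 μL/min, eluted with water and acetonitrile each holding 0.1% formic acid, with 40 μL dead and 900 μL dwell volumes. Retention time was determined from adduct peaks chosen by software and checked manually.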
Regarding `COCCNC(=O)c1nnn(-c2cccc(Cl)c2)c1-c1ccncc1`, the RP-LC retention time turned out to be 690 s.
`COCCSc1nc(-c2cccs2)cc(C(F)(F)F)c1C#N` showed an RP-LC retention time of 1120 s.
Regarding `COc1ccc(S(=O)(=O)CCc2noc(C(=O)NCc3cc(OC)c(OC)c(OC)c3)n2)cc1`, the RP-LC retention time was determined as 790 s.
As for `O=C(CSc1ccc(N2CCCC(C(=O)NC3CC3)C2)nn1)NCc1cc(F)cc(F)c1` (stereo not given), the RP-LC retention time is 642 s.
The figure for `CCN1CCCn2cc(S(=O)(=O)N3CCN(c4ccccc4)CC3)cc2C1=O` is 813 s; for `O=C(NCCCN1CCCC1)C1CCN(c2nc3cccnc3s2)CC1` it is 585 s; for `Cc1ccc(Sc2nccnc2N2CCC(C(=O)NCc3ccccc3C)CC2)cc1` it is 1150 s.
In turn, `Cc1oc2ccn(Cc3ccc(F)cc3)c(=O)c2c1C(=O)N1CCCCC1` registered an RP-LC retention time of 834 s.
The result for `CCN1C(=O)c2c(C(=O)NCc3ccccc3F)ncn2CC1(C)C(=O)NC1CCCC1` (stereo not given) reads 741 s.
For `CCC(=O)Nc1ccc(-n2cnc(C(=O)N3CCN(c4ccc(C)cc4C)CC3)c2)nc1`, the RP-LC retention time was determined as 865 s.
`CC(C)n1cnnc1-c1nn(C)c2c1CN(C(=O)CC1CCCC1)CC2` registered an RP-LC retention time of 732 s.
Turning to `CCC(=O)N(CC(=O)N1CCc2sccc2C1COc1ccccc1OC)C(C)C` (stereo not given), the RP-LC retention time was 855 s.
The result for `CCOc1ccc(CNC(=O)C2CCCN(c3ccc(=O)n(-c4ccc(F)cc4)n3)C2)cc1` (stereo not given) reads 869 s.
`CC(C)NC(=O)N1CCN(c2nc3ccccc3n(Cc3ccccc3)c2=O)CC1` came in with an RP-LC retention time of 912 s.
With `CCN1CCN(CCNC(=O)c2cc3n(n2)CCCN(Cc2ccc(Cl)cc2)C3=O)CC1`, the RP-LC retention time came out at 610 s.
For the molecule `COc1ccc(NC(=O)C2CN(S(=O)(=O)c3cccnc3)CC23CCCCC3)cc1` (stereo not given), the RP-LC retention time came out at 890 s.
For `COc1ccc(NC(=O)N2CCCC2c2nc(-c3ccc(OC)cc3)no2)cc1` (stereo not given), the RP-LC retention time turned out to be 876 s.
Take `COCCNC(=O)C(C)n1c(=O)c(C(F)(F)F)nc2cc(C)c(C)cc21` (stereo not given): the RP-LC retention time came to 986 s.
As to `CCCn1cc(C(=O)NC(C)c2ccc(OC)cc2)c2cccnc21` (stereo not given), the RP-LC retention time is 869 s.
Take `COc1ccc(C(=O)CSc2nnnn2-c2cccc(C)c2)cc1`: the RP-LC retention time was 941 s.
With `Cc1ccc(-n2nnnc2CNC(=O)Nc2ccc(Cl)c(Cl)c2)cc1C`, the RP-LC retention time was 944 s.
The result for `Cc1cc(N2CCCC2)nc(N2CCN(S(=O)(=O)c3ccc(-c4ccccc4)cc3)CC2)n1` reads 911 s.
In turn, `O=C(C1CCCN(c2ncnc3c2nc2n3CCCCC2)C1)N(Cc1ccco1)C1CCCCC1` (stereo not given) yielded an RP-LC retention time of 1020 s.
The molecule `COc1ccc(Cl)cc1NC(=O)N1CCC(n2cnc3cc(F)ccc3c2=O)CC1` had an RP-LC retention time of 895 s.
In the case of `COc1cccc(N2C=C(C(=O)N3CCOCC3)S(=O)(=O)c3ccccc32)c1`, the RP-LC retention time was determined as 645 s.
The molecule `COc1ccc2nc(C(=O)NCc3cccc(Br)c3)cn2n1` registered an RP-LC retention time of 896 s.
In the case of `O=C(CCc1c(-c2ccc(Cl)cc2)nc2ccccn12)NCc1cccnc1`, the RP-LC retention time was 570 s.
In turn, `CCC(C)NC(=O)c1cn(-c2ccc(-c3nc(C(C)C)no3)cn2)cn1` (stereo not given) had an RP-LC retention time of 899 s.
`O=C(Cc1cccc(C(F)(F)F)c1)Nc1cccn2cnnc12` displayed an RP-LC retention time of 744 s.
Take `CCn1c(=O)c2ccccc2n(Cc2nc(-c3ccc(Cl)c(F)c3)no2)c1=O`: the RP-LC retention time stood at 1140 s.
`Cc1ccc(N2CC(c3noc(-c4cccc(N(C)C)c4)n3)CC2=O)cc1` (stereo not given) registered an RP-LC retention time of 1090 s.
For the molecule `Cc1ccc2cc(CCC(=O)NCCCN3CCc4ccccc4C3)c(=O)[nH]c2c1`, the RP-LC retention time came out at 614 s.
As to `CCC(C)CN(CC(=O)N1CCc2sccc2C1COc1ccccc1F)C(=O)COC` (stereo not given), the RP-LC retention time is 958 s.
Regarding `CCOC(=O)C1C(=O)C=C(c2ccco2)CC1c1ccccc1Cl` (stereo not given), the RP-LC retention time was 1090 s.
In turn, `O=C(NC1CC1)c1ccc(-c2cccs2)nc1` yielded an RP-LC retention time of 716 s.
In turn, `CN(C)C(=O)c1csc(S(=O)(=O)N2CCC(C(=O)NCc3ccc(Cl)cc3)CC2)c1` gave an RP-LC retention time of 787 s.
In turn, `CCCN1C(=O)c2c(C(=O)NCc3ccccc3F)ncn2CC1(C)C(=O)NC1CCCC1` (stereo not given) yielded an RP-LC retention time of 787 s.
As for `NC(=O)Cc1cccc(C(=O)c2ccccc2)c1N`, the RP-LC retention time was 734 s.
The molecule `CS(=O)(=O)c1ccccc1NC(=O)C1CCCCN1S(=O)(=O)c1cccs1` (stereo not given) showed an RP-LC retention time of 837 s.
In turn, `Cc1cn(C)c(CC(=O)NCCCN2CCN(C)CC2)c1C(=O)O` yielded an RP-LC retention time of 561 s.
The figure for `Cc1cc2c(cc1S(=O)(=O)N(C)CC(=O)N1CCN(c3ccccn3)CC1)OCC(=O)N2` is 583 s.
The molecule `CCn1cnc2ccc(-c3noc(-c4ccc(Cl)cc4)n3)cc21` returned an RP-LC retention time of 863 s.
The molecule `CN(C)C(CNS(=O)(=O)/C=C/c1ccccc1)c1cn(C)c2ccccc12` (stereo not given) displayed an RP-LC retention time of 602 s.
`O=C(c1ccsc1)N1CCC2(CC1)NC(=O)N(Cc1cccc(Cl)c1)C2=O` yielded an RP-LC retention time of 816 s.
`COc1ccccc1NS(=O)(=O)c1ccc(-c2c(C)noc2C)cc1` yielded an RP-LC retention time of 924 s.
The result for `O=C(Cn1c(=O)c(CCC(=O)NC2CCCC2)nc2ccccc21)Nc1ccc(F)cc1` reads 808 s; that for `Cc1cc(C(=O)Nc2ccc3c(c2)CCC(=O)N3)no1`, 637 s; that for `O=C(N[C@@H]1CN(Cc2cc(Cl)ccc2F)C[C@H]1CO)C1CCC1`, 610 s.
`COc1ccccc1NC(=O)Cn1cnc2onc(C)c2c1=O`: the RP-LC retention time was found to be 748 s.
The result for `Cc1ccc(-c2cc3c(N4CCCC(C(=O)NCC5CC5)C4)nccn3n2)c(C)c1` (stereo not given) reads 863 s; that for `COc1ccc(OC)c(NC(=O)N2CCN(c3cc(C)nc(N4CCCC4)n3)CC2)c1`, 676 s.
In turn, `COCCNC(=O)N1CCC(C(=O)NCC(F)(F)F)CC1` displayed an RP-LC retention time of 571 s.
With `OC(COc1ccccc1Cl)Cn1c(C2CC2)nc2ccccc21` (stereo not given), the RP-LC retention time amounted to 693 s.
`COc1ccc(S(=O)(=O)N2CCCC(C(=O)NCc3ccccn3)C2)cc1Cl` (stereo not given) displayed an RP-LC retention time of 838 s.
For the molecule `Cc1noc(C)c1S(=O)(=O)N1[C@H]2CC[C@@H]1c1cnc(-c3ccc(F)cc3)nc1C2`, the RP-LC retention time amounted to 1060 s.
The result for `CS(=O)(=O)Nc1cccc(NC(=O)c2coc(NC(=O)c3ccccc3)n2)c1` reads 656 s; that for `Cc1noc(C)c1CN1CCN(C(=O)C(C)(C)Oc2ccc(Cl)cc2)CC1`, 606 s.
The figure for `CSc1ccc(-c2nc3ccc(C)cn3c2Nc2ccc(Cl)cc2)cc1` is 693 s.
As to `CNC(=O)Cn1nc(C2CCN(C(=O)c3nccc4ccccc34)CC2)c2c1CCOC2`, the RP-LC retention time is 609 s.
In turn, `CCCCCC(=O)N1CCCC1` registered an RP-LC retention time of 805 s.
In turn, `Cc1sc(-c2noc(C3CC3)n2)cc1S(=O)(=O)N1CCC(C(=O)N2CCCCCC2)CC1` returned an RP-LC retention time of 1050 s.
`Cc1[nH]c(=O)[nH]c(=O)c1CCC(=O)N1CCC(c2nc3ccccc3o2)CC1` yielded an RP-LC retention time of 600 s.
The result for `Cc1ccc(CNC(=O)CN2C(=O)C(Oc3ccc(F)cc3)C23CCCCC3)o1` (stereo not given) reads 1020 s; that for `CCn1cc(CCNC(=O)NCC(C)C)c2cccnc21`, 636 s; that for `CC(NC(=O)CSc1nnc2c3ccccc3nc(-c3ccco3)n12)c1nc2ccccc2[nH]1` (stereo not given), 638 s.
As to `Oc1ccc2c3c1OC1C(O)CC[C@@]4(O)[C@@H](C2)N(CC2CCC2)CC[C@]314` (stereo not given in full), the RP-LC retention time worked out at 619 s.
Turning to `O=C(Cn1nc2c3ccccc3ncn2c1=O)Nc1ccc2c(c1)OCO2`, the RP-LC retention time worked out at 665 s.
`NC(=O)c1c(NC(=O)C2=COCCO2)sc2c1CCCCC2` returned an RP-LC retention time of 987 s.
Regarding `CC(NC(=O)Cc1ccc(Cl)cc1)C(=O)Nc1nc2ccccc2[nH]1` (stereo not given), the RP-LC retention time was determined as 680 s.
Regarding `CCOCc1nc2c(N)nc3ccccc3c2n1CC(C)(C)O`, the RP-LC retention time turned out to be 662 s.
The result for `CCN1c2ccccc2C(=O)NC12CCN(C(=O)Nc1cc(Cl)ccc1OC)CC2` reads 787 s; that for `O=C(N1CCOC(c2ccc(C(F)(F)F)cc2)C1)C1(c2ccc(F)cc2)CC1` (stereo not given), 1020 s.
The result for `Cc1oc(C2CCN(C(=O)c3ccc(C#N)cc3)CC2)nc1C(=O)N(C)C` reads 654 s.
Consider `O=C(NC(Cc1c[nH]c2ccccc12)C(=O)O)c1ccc(Cl)cc1` (stereo not given), for which the RP-LC retention time was 724 s.
Consider `Cc1cc(C)cc(NC(=O)c2c(O)c3cccnc3n(-c3ccccc3)c2=O)c1`, for which the RP-LC retention time turned out to be 1430 s.
On to `CCOc1ccccc1NC(=O)Cc1csc2nc(-c3ccccc3)cn12`, for which the RP-LC retention time is 894 s.
Turning to `CCc1ccc(NC(=O)C2CCCN(S(=O)(=O)c3cn(CC)cn3)C2)cc1` (stereo not given), the RP-LC retention time is 753 s.
Regarding `Cc1ccc(-c2noc(Cc3nnc(-c4ccc(C)cc4)o3)n2)cc1`, the RP-LC retention time was 1120 s.
In turn, `CCOc1ccc(-n2ccn3cc(-c4ccc(Br)cc4)nc3c2=O)cc1` gave an RP-LC retention time of 954 s.
The molecule `COc1ccc(N2CCCn3c2nc2c3c(=O)n(CC(=O)O)c(=O)n2C)cc1` registered an RP-LC retention time of 660 s.

Values taken from the METLIN SMRT retention time set (Domingo-Almenara et al. 2019).
